Experimental data published in patent publication US6090605A, “Purified porcine kidney L-fucose kinase” (The Board of Trustees of the University of Arkansas, priority 1998, dated 2000).

Assays:
pig kidney fucokinase [1] = biological target: T1, pig kidney fucokinase (Sus scrofa, UniProt I3LTC2); assay: Specificity of fucokinase for phosphate donor (nucleotides); assay type: biochemical; details: nucleotide added at 1 mM as phosphate donor
T1 construct: L-Fucokinase was purified to apparent homogeneity from the cytosolic fraction of pig kidney; from tissue; host or cells: pig kidney, cytosolic fraction
T1 sequence (I3LTC2 1-1083): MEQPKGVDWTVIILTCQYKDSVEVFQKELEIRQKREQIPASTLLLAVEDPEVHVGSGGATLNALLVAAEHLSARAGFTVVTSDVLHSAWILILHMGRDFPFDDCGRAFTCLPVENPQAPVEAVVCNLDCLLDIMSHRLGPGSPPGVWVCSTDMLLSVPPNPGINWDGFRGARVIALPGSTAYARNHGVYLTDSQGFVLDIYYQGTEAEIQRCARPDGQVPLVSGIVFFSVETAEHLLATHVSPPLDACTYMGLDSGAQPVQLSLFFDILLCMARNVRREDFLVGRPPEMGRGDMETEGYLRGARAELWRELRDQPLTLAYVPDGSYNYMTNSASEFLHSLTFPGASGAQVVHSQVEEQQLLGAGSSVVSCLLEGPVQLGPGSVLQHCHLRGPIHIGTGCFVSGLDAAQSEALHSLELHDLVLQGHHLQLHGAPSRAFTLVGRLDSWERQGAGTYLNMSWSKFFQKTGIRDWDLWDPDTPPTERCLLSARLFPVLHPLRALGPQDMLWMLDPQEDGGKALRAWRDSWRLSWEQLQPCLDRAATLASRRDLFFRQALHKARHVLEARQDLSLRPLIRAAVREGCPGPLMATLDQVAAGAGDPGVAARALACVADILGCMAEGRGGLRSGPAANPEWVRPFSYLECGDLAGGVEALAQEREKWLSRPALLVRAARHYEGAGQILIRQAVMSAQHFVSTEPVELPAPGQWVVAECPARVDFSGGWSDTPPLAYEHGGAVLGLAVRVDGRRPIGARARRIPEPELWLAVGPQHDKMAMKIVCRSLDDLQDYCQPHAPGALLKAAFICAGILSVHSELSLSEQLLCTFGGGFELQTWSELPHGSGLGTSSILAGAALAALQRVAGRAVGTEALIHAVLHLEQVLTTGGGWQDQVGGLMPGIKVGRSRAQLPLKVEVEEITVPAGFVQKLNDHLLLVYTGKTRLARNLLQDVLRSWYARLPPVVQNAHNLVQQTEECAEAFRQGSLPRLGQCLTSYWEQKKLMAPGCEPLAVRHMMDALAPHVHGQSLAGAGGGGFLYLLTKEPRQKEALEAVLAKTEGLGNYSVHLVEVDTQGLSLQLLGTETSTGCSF
Method: (§1) Fucokinase activity was assayed by measuring the production of L-fucose-1-Pfrom [^3 H]L-fucose and ATP. The incubation mixtures contained the following components (final concentrations) in a total volume of 150 μl: L-fucose, 0.1 mM; ATP, 5 mM; MgSO4, 5 mM; Tris-HCl buffer, pH 8.0, 65 mM; and various amounts of enzyme at the different stages of purification. Incubations were at 37° C. for 10 minutes, and reactions were terminated by heating the reaction mixtures in a boiling water bath for 1 minute. The incubation mixtures were then applied to a column of DE-52 contained in a Pasteur pipette, and the column was washed with at least 5 column volumes of 10 mM (NH4)HCO3 to remove the unbound material. The [^3 H]fucose-1-P was then eluted with 500 mM (NH4)HCO3. Aliquots of the eluates were assayed for their radioactive content by subjecting a portion to scintillation counting.
The specificity of the nucleoside triphosphate was also examined by testing the ability of a variety of nucleotides to serve as phosphate donors in the phosphorylation of [^3 H]L-fucose. […] In addition, no activity is observed with any nucleoside diphosphates or monophosphates.

[2] = biological target: T2, pig kidney fucokinase (110 kDa band) (Sus scrofa, UniProt I3LTC2); assay: Photoaffinity labeling of the fucokinase with 8-azido-ATP[32P]; assay type: binding; details: for inhibition of labeling of the 110 kDa band by N3-ATP[32P] (in words): unlabeled ATP 0.3-1.2 mM, GTP, ITP 0.6 and 1.2 mM
T2 construct: L-Fucokinase was purified to apparent homogeneity from the cytosolic fraction of pig kidney; from tissue; host or cells: pig kidney, cytosolic fraction
T2 sequence (I3LTC2 1-1083): T1 sequence (I3LTC2 1-1083)
Method: The purified enzyme was incubated for 20 seconds with azido-ATP[^32 P], and the mixture was exposed to UV for 90 seconds. The reaction was stopped by adding loading buffer and the mixture subjected to SDS-PAGE. Radioactive bands were detected by exposure to film. Lanes are as follows: Lane 1, Probe+enzyme, but no UV; Lane 2, Probe+enzyme+UV; Lanes 3 through 6. Probe+enzyme+0.3, 0.6, 0.9, and 1.2 mM ATP+exposure to UV light; lanes 7 and 8, 0.6 and 1.2 mM GTP+probe+exposure to UV light: lanes 9 and 10, 0.6 and 1.2 mM ITP+probe+exposure to UV light. In lanes 11 and 12, the enzyme was incubated with N3 -GTP[^32 P ] and then exposed to UV light (lane 12) or not exposed to UV light (lane 11). Lane 13 is a control of enzyme+N3 -ATP[^32 P]+exposure to UV light.
Enzyme, at various stages of purity, was mixed with 8-azido-ATP[^32 P] in buffer, and allowed to incubate for 20 sec. in an ice bath. 8-Azido-ATP[^32 P] was prepared as previously described (16). After incubation, the reaction mixture was exposed to short wave UV light for about 90 sec. to activate the azido group, and the protein was subjected to SDS gel electrophoresis to separate the proteins. The gels were dried and exposed to film to locate the radioactive bands and were also stained with Coomassie blue to locate the various proteins. The specificity of the labeling was determined by examining the effect of various concentrations of unlabeled ATP or other nucleotides on the labeling of the protein by N3 -ATP[^32 P]. Various controls were also run, such as one in which exposure to UV was omitted.
Lanes 11-13 of FIG. 3 show the results of another experiment designed to determine whether 8-N3 -GTP[^32 P] could label the fucokinase. […] These experiments indicate that the fucokinase is quite specific for ATP.

pig kidney fucokinase [3] = biological target: T1, pig kidney fucokinase; assay: Sugar specificity of purified fucokinase (radiolabeled sugars as phosphate acceptors); assay type: biochemical; details: for activity as phosphate acceptor (in words): purified enzyme; for Specific Activity: radiolabeled sugar 100 μM as phosphate acceptor
Method: as §1
The specificity of the kinase for various sugar substrates was examined in two different ways. In the first set of experiments, various radiolabeled sugars were tested as phosphate acceptors for the purified enzyme using the ion-exchange chromatography method for assay of activity. […] D-Arabinose, which has the same configuration at carbons 1 through 4 as L-fucose, was also a reasonable substrate for phosphorylation, and was about 10% as effective as L-fucose. On the other hand, all of the other sugars were ineffective as phosphate acceptors.

pig kidney fucokinase [4] = biological target: T1, pig kidney fucokinase; assay: Inhibition of [3H]L-fucose phosphorylation by unlabeled monosaccharides; assay type: biochemical; details: unlabeled monosaccharide 500 μM; radiolabeled L-fucose substrate 100 μM
Method: as §1
Although it was possible to get a reasonable assessment of the sugar specificity of the kinase from the above experiment, it was not possible to test sugars such as D-fucose, since these sugars are not available in radioactive form. Thus, these unlabeled sugars were tested for their ability to inhibit the phosphorylation of [^3 H]L-fucose. The rationale for this experiment is that a sugar that inhibits the phosphorylation of L-fucose would probably compete with L-fucose for the phosphorylation (i.e., active) site.

[5] = tested on: pig liver L-fucokinase preparation; details: cited from earlier work
[6] = tested on: pig liver L-fucokinase preparation; details: cited from earlier work; remark: listed apart in the source
pig kidney fucokinase [7] = biological target: T1, pig kidney fucokinase; assay: Inhibition of fucokinase by GDP-L-fucose and other GDP-linked sugars; assay type: biochemical
Method: as §1
It can be seen that the amount of inhibition of fucokinase increased with increasing amounts of GDP-L-fucose, and the Ki for GDP-L-fucose was estimated to be about 10 μM.

For `Nc1ncnc2c1ncn2[C@@H]1O[C@H](COP(=O)(O)OP(=O)(O)OP(=O)(O)O)[C@@H](O)[C@H]1O` [ATP], the “Specific Activity” value (pig kidney fucokinase [1]) was 4.05 nmoles/mg protein/10 min and the “inhibition of labeling of the 110 kDa band by N3-ATP[32P] (in words)” value (shortened to “inhibition of labeling … (in words)”) [2] was “inhibited in a dose-dependent manner”.
With `O=C[C@H](O)[C@@H](O)[C@@H](O)[C@H](O)CO` [D-galactose] the “activity as phosphate acceptor (in words)” value (shortened to “activity … (in words)”) (pig kidney fucokinase [3]) was “does not phosphorylate”, the “Specific Activity” value (pig kidney fucokinase [3]) was 0 nmole/mg protein and the “Relative Activity (%)” value (pig kidney fucokinase [4]) was 100%. For the same molecule, the “rate of phosphorylation compared with L-fucose (in words)” value [5] was “about the same rate or better”.
For `O=C[C@H](O)[C@@H](O)[C@H](O)[C@H](O)CO` [D-glucose], the “activity … (in words)” value (pig kidney fucokinase [3]) was “does not phosphorylate”, the “Specific Activity” value (pig kidney fucokinase [3]) was 0.3 nmole/mg protein and the “Relative Activity (%)” value (pig kidney fucokinase [4]) was 100%. For the same molecule, the “phosphorylation of sugar by the about 70-fold purified preparation (in words)” value [6] was “considerable activity for phosphorylating” and the “rate of phosphorylation compared with L-fucose (in words)” value [5] was “about the same rate or better”.
With `O=C[C@@H](O)[C@@H](O)[C@H](O)[C@H](O)CO` [D-mannose] the “activity … (in words)” value (pig kidney fucokinase [3]) was “does not phosphorylate”, the “Specific Activity” value (pig kidney fucokinase [3]) was 0 nmole/mg protein and the “Relative Activity (%)” value (pig kidney fucokinase [4]) was 100%. The “rate of phosphorylation compared with L-fucose (in words)” value [5] was “about the same rate or better”.
With `Nc1nc2c(ncn2[C@@H]2O[C@H](COP(=O)(O)OP(=O)(O)OC3O[C@H](CO)[C@@H](O)[C@H](O)[C@H]3O)[C@@H](O)[C@H]2O)c(=O)[nH]1` (stereo partly drawn) [GDP-D-glucose] the “inhibition of the fucokinase (in words)” value (pig kidney fucokinase [7]) was “did not inhibit”.
With `Nc1nc2c(ncn2[C@@H]2O[C@H](COP(=O)(O)OP(=O)(O)O[C@H]3O[C@H](CO)[C@@H](O)[C@H](O)[C@@H]3O)[C@@H](O)[C@H]2O)c(=O)[nH]1` [GDP-D-mannose] the “inhibition of the fucokinase (in words)” value (pig kidney fucokinase [7]) was “did not inhibit”.
In the case of `C[C@@H]1O[C@H](OP(=O)(O)OP(=O)(O)OC[C@H]2O[C@@H](n3cnc4c(=O)[nH]c(N)nc43)[C@H](O)[C@@H]2O)[C@@H](O)[C@H](O)[C@@H]1O` [GDP-L-fucose], the Ki (pig kidney fucokinase [7]; 100 μM [3H]fucose, 5 mM ATP, 5 mM Mg++, pH 8.0) is reported as roughly 10 µM.
In the case of `Nc1nc2c(ncn2[C@@H]2O[C@H](COP(=O)(O)OP(=O)(O)OP(=O)(O)O)[C@@H](O)[C@H]2O)c(=O)[nH]1` [GTP], the “Specific Activity” value (pig kidney fucokinase [1]) is listed as 0.09 nmoles/mg protein/10 min, the “inhibition of labeling … (in words)” value [2] is listed as “considerably less effective in inhibiting” and the “use as phosphate donor (in words)” value [6] is listed as “could also use”.
With `O=c1[nH]cnc2c1ncn2[C@@H]1O[C@H](COP(=O)(O)OP(=O)(O)OP(=O)(O)O)[C@@H](O)[C@H]1O` [ITP] the “Specific Activity” value (pig kidney fucokinase [1]) was 0.10 nmoles/mg protein/10 min and the “inhibition of labeling … (in words)” value [2] was “considerably less effective in inhibiting”.
In the case of `C[C@@H]1O[C@H](OP(=O)(O)O)[C@@H](O)[C@H](O)[C@@H]1O` [L-fucose-1-P], the “inhibition of the fucokinase (in words)” value (pig kidney fucokinase [7]) is reported as “did not inhibit”.
For `[N-]=[N+]=Nc1nc2c(N)ncnc2n1[C@@H]1O[C@H](COP(=O)(O)OP(=O)(O)OP(=O)(O)O)[C@@H](O)[C@H]1O` [N3 -ATP[^32 P], 8-azido-ATP[^32 P]], the “labeling of the 110 kDa protein by photoprobe (in words)” value ([2]; incubation with probe, exposure to UV light) was “did result in labeling of the 110 kDa protein”.
